pIC50: −log10 of the molar value. The source made the active and inactive calls. The rule behind the calls is not given here.
How the values were obtained:
MGC-803 [1] = test: Induction of apoptosis in human MGC803 cells assessed as necrotic cells at 12 uM after 12 hrs by Annexin V-FITC/propidium iodide staining based flow cytometry (reference value: 9.2%); assay type: functional
MGC-803 [2] = test: Induction of apoptosis in human MGC803 cells assessed as decrease in expression of procaspase-3 at 4 to 12 uM after 24 hrs by Western blot analysis; assay type: functional, cell-based
[3] = Cytotoxicity against human GES-1 cells assessed as cell viability at 20 uM after 72 hrs by MTT assay relative to control; assay type: cell-based, GES1; conditions: read-out: Activity
MGC-803 [4] = test: Induction of apoptosis in human MGC803 cells assessed as increase in expression of cleaved caspase-9 at 4 to 12 uM by Western blot analysis; assay type: functional, cell-based; conditions: TDE = time-dependent effect
MGC-803 [5] = test: Induction of apoptosis in human MGC803 cells assessed as early apoptotic cells at 12 uM after 24 hrs by Annexin V-FITC/propidium iodide staining based flow cytometry (reference value: 6%); assay type: functional
Mus musculus = test: Toxicity in nude mouse xenografted with human MGC803 cells assessed as body weight loss at 7.5 to 30 mg/kg, po qd for 28 days; assay type: organism-based, MGC-803; conditions: in vivo, 672 h
MGC-803 [6] = test: Induction of apoptosis in human MGC803 cells assessed as increase in expression of cleaved caspase-9 at 4 to 12 uM after 24 hrs by Western blot analysis; assay type: functional, cell-based
[7] = Cytotoxicity against human MGC803 cells assessed as reduction in cell viability after 72 hrs by MTT assay; assay type: functional, cell-based; conditions: MGC-803, 72 h
[8] = Cytotoxicity against human SMMC7721 cells assessed as reduction in cell viability after 72 hrs by MTT assay; assay type: functional, cell-based; conditions: SMMC-7721, 72 h
MGC-803 [9] = test: Induction of apoptosis in human MGC803 cells assessed as early apoptotic cells at 4 uM after 24 hrs by Annexin V-FITC/propidium iodide staining based flow cytometry (reference value: 6%); assay type: functional
MGC-803 [10] = test: Induction of apoptosis in human MGC803 cells assessed as late apoptotic cells at 12 uM after 24 hrs by Annexin V-FITC/propidium iodide staining based flow cytometry (reference value: 1.2%); assay type: functional
MGC-803 [11] = test: Induction of apoptosis in human MGC803 cells assessed as necrotic cells at 4 uM after 24 hrs by Annexin V-FITC/propidium iodide staining based flow cytometry (reference value: 6.1%); assay type: functional
MGC-803 [12] = test: Induction of apoptosis in human MGC803 cells assessed as late apoptotic cells at 4 uM after 12 hrs by Annexin V-FITC/propidium iodide staining based flow cytometry (reference value: 1.2%); assay type: functional
MGC-803 [13] = test: Induction of apoptosis in human MGC803 cells assessed as viable cells at 4 uM after 12 hrs by Annexin V-FITC/propidium iodide staining based flow cytometry (reference value: 83.4%); assay type: functional; conditions: MGC-803, 12 h, read-out: Activity
MGC-803 [14] = test: Induction of apoptosis in human MGC803 cells assessed as viable cells at 12 uM after 24 hrs by Annexin V-FITC/propidium iodide staining based flow cytometry (reference value: 86.6%); assay type: functional; conditions: MGC-803, 24 h, read-out: Activity
MGC-803 [15] = test: Induction of apoptosis in human MGC803 cells assessed as early apoptotic cells at 4 uM after 12 hrs by Annexin V-FITC/propidium iodide staining based flow cytometry (reference value: 6.3%); assay type: functional
MGC-803 [16] = test: Induction of apoptosis in human MGC803 cells assessed as necrotic cells at 4 uM after 12 hrs by Annexin V-FITC/propidium iodide staining based flow cytometry (reference value: 9.2%); assay type: functional
MGC-803 [17] = test: Induction of apoptosis in human MGC803 cells assessed as early apoptotic cells at 8 uM after 12 hrs by Annexin V-FITC/propidium iodide staining based flow cytometry (reference value: 6.3%); assay type: functional
MGC-803 [18] = test: Induction of apoptosis in human MGC803 cells assessed as viable cells at 8 uM after 12 hrs by Annexin V-FITC/propidium iodide staining based flow cytometry (reference value: 83.4%); assay type: functional; conditions: MGC-803, 12 h, read-out: Activity
MGC-803 [19] = test: Induction of apoptosis in human MGC803 cells assessed as viable cells at 8 uM after 24 hrs by Annexin V-FITC/propidium iodide staining based flow cytometry (reference value: 86.6%); assay type: functional; conditions: MGC-803, 24 h, read-out: Activity
MGC-803 [20] = test: Induction of apoptosis in human MGC803 cells assessed as decrease in expression of procaspase-9 at 4 to 12 uM after 24 hrs by Western blot analysis; assay type: functional, cell-based
MGC-803 [21] = test: Induction of apoptosis in human MGC803 cells assessed as early apoptotic cells at 8 uM after 24 hrs by Annexin V-FITC/propidium iodide staining based flow cytometry (reference value: 6%); assay type: functional
MGC-803 [22] = test: Induction of apoptosis in human MGC803 cells assessed as late apoptotic cells at 8 uM after 12 hrs by Annexin V-FITC/propidium iodide staining based flow cytometry (reference value: 1.2%); assay type: functional
MGC-803 [23] = test: Induction of apoptosis in human MGC803 cells assessed as late apoptotic cells at 12 uM after 12 hrs by Annexin V-FITC/propidium iodide staining based flow cytometry (reference value: 1.2%); assay type: functional
MGC-803 [24] = test: Induction of apoptosis in human MGC803 cells assessed as viable cells at 12 uM after 12 hrs by Annexin V-FITC/propidium iodide staining based flow cytometry (reference value: 83.4%); assay type: functional; conditions: MGC-803, 12 h, read-out: Activity
[25] = Antitumor activity against human MGC803 cells xenografted in nude mouse assessed as reduction in tumor weight 7.5 to 30 mg/kg, po qd for 28 days relative to control; assay type: functional, MGC-803; parameters: scale not given: the % may be the effect or the level left
MGC-803 [26] = test: Induction of apoptosis in human MGC803 cells assessed as increase in expression of cleaved caspase-3 at 4 to 12 uM by Western blot analysis; assay type: functional, cell-based; conditions: TDE = time-dependent effect
MGC-803 [27] = test: Induction of apoptosis in human MGC803 cells assessed as viable cells at 4 uM after 24 hrs by Annexin V-FITC/propidium iodide staining based flow cytometry (reference value: 86.6%); assay type: functional; conditions: MGC-803, 24 h, read-out: Activity
MGC-803 [28] = test: Induction of apoptosis in human MGC803 cells assessed as increase in expression of cleaved caspase-9 after 24 hrs by Western blot analysis; assay type: functional, cell-based
MGC-803 [29] = test: Induction of apoptosis in human MGC803 cells assessed as reduction in Bcl-2 protein expression after 24 hrs by Western blot analysis; assay type: functional, cell-based
MGC-803 [30] = test: Induction of apoptosis in human MGC803 cells assessed as late apoptotic cells at 4 uM after 24 hrs by Annexin V-FITC/propidium iodide staining based flow cytometry (reference value: 1.2%); assay type: functional
MGC-803 [31] = test: Induction of apoptosis in human MGC803 cells by Annexin V-FITC/propidium iodide staining based flow cytometry; assay type: functional, cell-based
MGC-803 [32] = test: Induction of apoptosis in human MGC803 cells assessed as early apoptotic cells at 12 uM after 12 hrs by Annexin V-FITC/propidium iodide staining based flow cytometry (reference value: 6.3%); assay type: functional
MGC-803 [33] = test: Induction of apoptosis in human MGC803 cells assessed as necrotic cells at 8 uM after 12 hrs by Annexin V-FITC/propidium iodide staining based flow cytometry (reference value: 9.2%); assay type: functional
MGC-803 [34] = test: Induction of apoptosis in human MGC803 cells assessed as late apoptotic cells at 8 uM after 24 hrs by Annexin V-FITC/propidium iodide staining based flow cytometry (reference value: 1.2%); assay type: functional
MGC-803 [35] = test: Induction of apoptosis in human MGC803 cells assessed as increase in Bax protein expression after 24 hrs by Western blot analysis; assay type: functional, cell-based
MGC-803 [36] = test: Induction of apoptosis in human MGC803 cells assessed as necrotic cells at 12 uM after 24 hrs by Annexin V-FITC/propidium iodide staining based flow cytometry (reference value: 6.1%); assay type: functional
MGC-803 [37] = test: Induction of apoptosis in human MGC803 cells assessed as increase in expression of cleaved caspase-3 at 4 to 12 uM after 24 hrs by Western blot analysis; assay type: functional, cell-based
MCF7 = test: Cytotoxicity against human MCF7 cells assessed as reduction in cell viability after 72 hrs by MTT assay; assay type: functional, cell-based; conditions: MCF7, 72 h
MGC-803 [38] = test: Induction of apoptosis in human MGC803 cells assessed as necrotic cells at 8 uM after 24 hrs by Annexin V-FITC/propidium iodide staining based flow cytometry (reference value: 6.1%); assay type: functional
MGC-803 [39] = test: Induction of apoptosis in human MGC803 cells assessed as morphological changes at 4 to 12 uM after 12 hrs by inverted microscopy; assay type: functional, cell-based
[40] = Cytotoxicity against human EC109 cells assessed as reduction in cell viability after 72 hrs by MTT assay; assay type: functional, cell-based; conditions: ECa-109, 72 h
MGC-803 [41] = test: Induction of apoptosis in human MGC803 cells assessed as nuclear morphological changes at 4 to 12 uM after 12 hrs by Hoechst 33258 staining based fluorescence assay; assay type: functional, cell-based
MGC-803 [42] = test: Induction of apoptosis in human MGC803 cells assessed as increase in expression of cleaved caspase-3 after 24 hrs by Western blot analysis; assay type: functional, cell-based

O=C1C(=C/C=C/c2ccccc2)C(=O)N(c2ccc(Cl)cc2)N1c1ccc(Cl)cc1
Activity (MGC-803 [1]): 3.9% | Activity (MGC-803 [2]): Active | viability at 72 h, 20 µM [3]: 75% | Activity (MGC-803 [4]): tde | Activity (MGC-803 [5]): 52.7% | Activity (Mus musculus): Non-toxic | Activity (MGC-803 [6]): Active | pIC50 [7]: 5.29 | pIC50 [8]: 5.00 | Activity (MGC-803 [9]): 20.4% | Activity (MGC-803 [10]): 3.7% | Activity (MGC-803 [11]): 5.8% | Activity (MGC-803 [12]): 1.8% | viability at 4 µM (MGC-803 [13]): 77.7% | viability at 12 µM (MGC-803 [14]): 39.2% | Activity (MGC-803 [15]): 12.8% | Activity (MGC-803 [16]): 7.8% | Activity (MGC-803 [17]): 21.5% | viability at 8 µM (MGC-803 [18]): 71.1% | viability at 8 µM (MGC-803 [19]): 65% | Activity (MGC-803 [20]): Active | Activity (MGC-803 [21]): 28.8% | Activity (MGC-803 [22]): 1.7% | Activity (MGC-803 [23]): 1.9% | viability at 12 µM (MGC-803 [24]): 64.1% | Activity [25]: 60.4% | Activity (MGC-803 [26]): tde | viability at 4 µM (MGC-803 [27]): 72.1% | Activity (MGC-803 [28]): Dose-dependent effect | Activity (MGC-803 [29]): Dose-dependent effect | Activity (MGC-803 [30]): 1.8% | Activity (MGC-803 [31]): Dose-dependent effect | Activity (MGC-803 [32]): 30.1% | Activity (MGC-803 [33]): 5.7% | Activity (MGC-803 [34]): 2% | Activity (MGC-803 [35]): Dose-dependent effect | Activity (MGC-803 [36]): 4.4% | Activity (MGC-803 [37]): Active | pIC50 (MCF7): 5.03 | Activity (MGC-803 [38]): 4.2% | Activity (MGC-803 [39]): Active | pIC50 [40]: 5.00 | Activity (MGC-803 [41]): Active | Activity (MGC-803 [42]): Dose-dependent effect

— ChEMBL document CHEMBL3751767, “Synthesis, in vitro and in vivo anticancer activities of novel 4-substituted 1,2-bis(4-chlorophenyl)-pyrazolidine-3,5-dione derivatives” (Medchemcomm, 2015)
